# pIC50: −log10 of the molar value.
# Test system: K-562 leukemia growth, % test/control
# Experiment: Anticancer human tumor K-562 cell line growth inhibition;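 note: spheroids exposed to compounds for 7 days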;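 for viability, T/C: 100% = DMSO vehicle wells and lower values mean fewer viable cells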
# Details: spheroids with HUVEC and MSC; for pIC50: curve of first compound; for viability, T/C: stronger effect = lower value
# Procedure, shortened: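 Drug combinations with the LSD1 inhibitor iadademstat tested on tumor cells co-cultured as spheroids with endothelial cells and mesenchymal stem cells. Concentrations descended in half-log increments from clinical Cmax or 10 microM.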
smiles,measurement,setting,value
CC1COCCN1c1cc(C2(S(C)(=N)=O)CC2)nc(-c2ccnc3[nH]ccc23)n1 (stereo not given) + NC1CC1c1ccc(-c2cccc(O)c2)cc1,pIC50,second compound 0.1 µM,5.80
same,pIC50,second compound 0.316 µM,5.80
same,pIC50,second compound 1 µM,5.82
same,pIC50,second compound 3.16 µM,5.83
same,pIC50,second compound 10 µM,5.87
same,"viability, T/C","second compound 0.1 µM, first compound 0.0316 µM",115%
same,"viability, T/C","second compound 0.1 µM, first compound 0.1 µM",107%
same,"viability, T/C","second compound 0.1 µM, first compound 0.316 µM",108%
same,"viability, T/C","second compound 0.1 µM, first compound 1 µM",77.3%
same,"viability, T/C","second compound 0.1 µM, first compound 3.16 µM",9.88%
same,"viability, T/C","second compound 0.1 µM, first compound 10 µM",2.95%
same,"viability, T/C","second compound 0.316 µM, first compound 0.0316 µM",100%
same,"viability, T/C","second compound 0.316 µM, first compound 0.1 µM",107%
same,"viability, T/C","second compound 0.316 µM, first compound 0.316 µM",101%
same,"viability, T/C","second compound 0.316 µM, first compound 1 µM",77.9%
same,"viability, T/C","second compound 0.316 µM, first compound 3.16 µM",7.2%
same,"viability, T/C","second compound 0.316 µM, first compound 10 µM",2.06%
same,"viability, T/C","second compound 1 µM, first compound 0.0316 µM",105%
same,"viability, T/C","second compound 1 µM, first compound 0.1 µM",104%
same,"viability, T/C","second compound 1 µM, first compound 0.316 µM",103%
same,"viability, T/C","second compound 1 µM, first compound 1 µM",74%
same,"viability, T/C","second compound 1 µM, first compound 3.16 µM",6.19%
same,"viability, T/C","second compound 1 µM, first compound 10 µM",1.92%
same,"viability, T/C","second compound 3.16 µM, first compound 0.0316 µM",109%
same,"viability, T/C","second compound 3.16 µM, first compound 0.1 µM",105%
same,"viability, T/C","second compound 3.16 µM, first compound 0.316 µM",99.2%
same,"viability, T/C","second compound 3.16 µM, first compound 1 µM",72.8%
same,"viability, T/C","second compound 3.16 µM, first compound 3.16 µM",6.87%
same,"viability, T/C","second compound 3.16 µM, first compound 10 µM",2.7%
same,"viability, T/C","second compound 10 µM, first compound 0.0316 µM",105%
same,"viability, T/C","second compound 10 µM, first compound 0.1 µM",105%
same,"viability, T/C","second compound 10 µM, first compound 0.316 µM",106%
same,"viability, T/C","second compound 10 µM, first compound 1 µM",65.7%
same,"viability, T/C","second compound 10 µM, first compound 3.16 µM",5.01%
same,"viability, T/C","second compound 10 µM, first compound 10 µM",2.52%

# Reference: PubChem BioAssay AID1918948 (Molecular Pharmacology Branch, DTP, NCI, 2023)
